Measurements from patent publication US20110009379A1, “INDOLINONE COMPOUND” (ASTELLAS PHARMA INC., priority 2008, published 2011).
Like-named read-outs stand apart in the source and are kept apart here.

How the values were obtained:
RIN14B cells = experiment: Measurement of 5-HT secretion from RIN14B; type: cell-based; conditions: 20 minutes at 37° C., relative to 300 μM allyl isothiocyanate = 100%, HBSS only = 0%
Description: In order to investigate whether TRPA1 is related to 5-HT release, 5-HT secretion promotion from RIN14B by a compound to be tested was measured.
The RIN14B cells cultivated in a petri dish were scraped using Phosphate buffered saline (PBS) containing 1 mM EDTA, distributed into 24 well plates, and cultivated for 2 days. As a medium, a medium in which 10% fetal bovine serum (ICN), 100 U/mL penicillin, and 100 μg/mL streptomycin was added to RPMI1640 (Invitrogen), was used. The cells were washed once with HBSS (Invitrogen) and added with 0.1% BSA and 10 μM fluoxetine (TOCRIS Co.), followed by dilution with the above HBSS, the prepared compound to be tested was added to RIN14B cells, followed by cultivation at 37° C., under 5% CO2 condition for 20 minutes. After cultivation, supernatant of cells was recovered, followed by freeze preservation. The content of 5-HT in the supernatant was measured by a commercial serotonin immunoassay kit (Beckman). 5-HT release promotion activation value (%) was evaluated as a relative value when the 5-HT release promotion value by 300 μM of allyl isothiocyanate was defined as 100%, and the 5-HT release promotion value by HBSS for dilution only was defined as 0%.

human TRPA1 = biological target: T1, human TRPA1 (Homo sapiens, UniProt O75762, K186N/R3C/R58T); experiment: Measurement of TRPA1 activation activity (intracellular calcium, FLIPR, HEK293 cells stably expressing human TRPA1); type: cell-based; conditions: change of intracellular calcium concentration
T1 construct: expressed in transfected cells; pcDNA3.1(+) vector)
T1 sequence (O75762 whole entry R3C/R58T/K186N): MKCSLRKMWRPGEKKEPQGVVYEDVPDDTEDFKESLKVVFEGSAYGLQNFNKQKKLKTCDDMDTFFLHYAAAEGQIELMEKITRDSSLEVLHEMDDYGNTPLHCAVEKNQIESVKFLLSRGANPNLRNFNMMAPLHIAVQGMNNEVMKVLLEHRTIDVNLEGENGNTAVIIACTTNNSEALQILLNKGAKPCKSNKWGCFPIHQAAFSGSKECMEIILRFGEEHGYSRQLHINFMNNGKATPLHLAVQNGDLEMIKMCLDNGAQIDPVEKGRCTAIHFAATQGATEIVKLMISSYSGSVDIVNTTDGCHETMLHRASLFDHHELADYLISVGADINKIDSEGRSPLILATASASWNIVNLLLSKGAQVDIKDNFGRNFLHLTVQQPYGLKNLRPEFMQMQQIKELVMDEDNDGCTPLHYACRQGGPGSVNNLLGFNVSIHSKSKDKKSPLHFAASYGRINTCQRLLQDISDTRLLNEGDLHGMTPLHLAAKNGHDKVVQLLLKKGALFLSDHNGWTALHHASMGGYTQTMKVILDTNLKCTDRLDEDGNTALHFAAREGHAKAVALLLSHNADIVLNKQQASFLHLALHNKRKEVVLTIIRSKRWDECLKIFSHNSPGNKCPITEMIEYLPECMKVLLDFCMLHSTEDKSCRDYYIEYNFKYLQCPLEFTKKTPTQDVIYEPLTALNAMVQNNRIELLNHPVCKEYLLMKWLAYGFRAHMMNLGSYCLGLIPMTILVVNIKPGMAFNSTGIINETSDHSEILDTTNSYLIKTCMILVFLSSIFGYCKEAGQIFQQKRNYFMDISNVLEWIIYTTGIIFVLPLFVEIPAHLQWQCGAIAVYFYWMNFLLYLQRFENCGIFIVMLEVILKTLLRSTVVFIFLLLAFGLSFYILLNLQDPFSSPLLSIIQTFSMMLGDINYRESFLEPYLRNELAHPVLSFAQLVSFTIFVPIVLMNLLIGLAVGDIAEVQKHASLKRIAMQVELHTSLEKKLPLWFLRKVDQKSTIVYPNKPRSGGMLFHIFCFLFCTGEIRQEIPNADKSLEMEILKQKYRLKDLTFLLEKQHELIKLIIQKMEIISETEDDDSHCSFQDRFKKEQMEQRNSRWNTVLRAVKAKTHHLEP
Description: 10 ng of Human brain mRNA (Clontech Co.) was treated with DNase, and then was reverse transcribed using kit for reverse transcription-polymerase chain reaction (RT-PCR) (SUPERSCRIPT First-Strand Synthesis System for RT-PCR; Invitrogen Co.) to synthesize the first strand cDNA. PCR using a hot start method was performed using the first strand cDNA as a template and Taq DNA polymerase (LA Taq DNA polymerase; TAKARA SHUZO). The PCR was performed using oligonucleotides consisting of the nucleotide sequences, represented by sequence number 2 as a sense primer and sequence number 3 as an antisense primer, in which firstly, heat denaturation was performed at 98° C. (1 minute), and then a cycle of 98° C. (15 seconds)/56° C. (30 seconds)/72° C. (5 minutes) was repeated 35 times. As a result, a DNA fragment of about 3.3 kbp was amplified.
The DNA fragment was cloned to pCR-TOPO vector using a cloning kit (TOPO XL PCR Cloning Kit; Invitrogen). The obtained plasmid DNA was digested with restriction enzymes KpnI and HindIII, and then was cloned using plasmid pcDNA 3.1(+)(Invitrogen). In this connection, the plasmid pcDNA 3.1(+) has a promoter sequence derived from cytemegalovirus, and can be used in order to express a protein in animal cells.
The nucleotide sequences of the obtained clones were analyzed using DNA sequencer (ABI3700 DNA Sequencer; Applied Biosystems) by dideoxyterminator method, and the nucleotide sequence represented by sequence number 1 was obtained. Furthermore, when these sequences were translated to amino acid sequences, the amino acid sequence represented by sequence number 1 was obtained.
After constructing the expression vector of the human TRPA1 gene, selection by G418 was performed from the HEK293 cells which temporarily expressed TRPA1 by transfection operation to obtain cells stably expressing TRPA1. The above operation was performed according to known methods (experimental medicine supplementary volume, “Cultivation Cell Experimental Methods for Molecular Biology Study” published by Toshio Kuroki, Namho Hue and Kazuhiro Chida, 1995, Yodosha).
In order to measure the change of the intracellular calcium concentration in the cells stably expressing the human TRPA1, the change of the intracellular calcium concentration when a compound to be tested was added was measured using FLIPR (Molecular Device).
In order to measure the change of the intracellular calcium concentration with FLIPR, the following pretreatment was performed. First of all, assay buffer was prepared which was for adding fluorescent pigment Fluo4-AM (DOJIN) to the cells or washing the cells just before performing FLIPR assay. To a solution (hereinafter, HBSS/HEPES solution) where 20 mL of 1M HEPES (pH 7.4; Invitrogen) was added to 1000 mL of a physiological saline buffer (Hank's Balanced Salt Solution; HBSS) (Invitrogen), was added 10 mL of a solution where 710 mg of probenecid (Sigma) was dissolved into 5 mL of 1M aqueous NaOH solution and 5 mL of HBSS/HEPES solution was further added and mixed, and the assay buffer was thus prepared. Then, 50 μg of Fluo4-AM was dissolved into 22 μL of DMSO (DOJIN), the same amount of 20% pluronic acid (Molecular Probes) was added thereto and mixed, and the mixture was added to the 10.6 mL of the assay buffer where 105 μL of fetal bovine serum was added, to prepare a fluorescent pigment solution. The medium of the cells stably expressing TRPA1 was removed, 100 μL per well of the fluorescent pigment solution was dispensed immediately, followed by cultivation in a CO2 cultivator for 1 hour, and the fluorescent pigment was soaked in the cells. The cells after cultivation were washed using the assay buffer, followed by being set in FLIPR. Furthermore, a test sample, which was added to the cells stably expressing TRPA1, was prepared by using the assay buffer, and at the same time, was set in FLIPR. […]

gastric emptying of rats = experiment: Activity to gastric emptying of TRPA1 agonist (phenol red, rats); type: in vivo; conditions: Rattus norvegicus, read-out: ED50 (amount which suppresses 50% of gastric emptying)
Source text: When EC cell is stimulated by content of a gastrointestinal tract, 5-HT is secreted. The secreted 5-HT promotes the secretion or motility through a 5-HT receptor present in intestinal nerve plexus or gastrointestinal smooth muscle. The secreted 5-HT is instantly taken into a cell by its specific transporter, and is metabolized by […]. Thus, while it is considerably difficult to directly measure the secreted 5-HT concentration, it has been known that gastric emptying is delayed as a physiological activity through 5-HT in rodents. In order to verify in vivo activity through 5-HT of the compound to be tested, activity to gastric emptying of rats by various TRPA1 agonists was studied.
In the experiment, male wistar rats (body weight 290 to 360 g) were used. The animals were purchased from Japan SLC (Shizuoka). The animals were allowed to drink water freely under a constitutive environment.
5 minutes after the medicine was orally administered, 0.05% phenol red solution (1.5 mL) was orally administered. After 15 minutes, rats were put painlessly to death by cervical vertebral dislocation, their stomachs were exenterated, and phenol red was eluted with 0.1M aqueous NaOH solution (5 mL) from the exenterated stomachs. 20% aqueous trichloroacetic acid solution (0.1 mL) was added to the NaOH solution (0.5 mL), followed by stirring and centrifugation at 15,000 rpm, at 4° C., for 10 minutes. 0.5M aqueous NaOH solution (0.2 mL) was added to the supernatant (0.05 mL), followed by stirring, and absorbance at 560 nm was measured using an absorption spectrometer (spectrometer spectramax M2; Molecular Devices, CA, USA).
A gastric emptying was calculated by the following calculating formula.
Gastric emptying (%)=100−(A/B)×100
A: amount of phenol red remaining in stomach
B: amount of phenol red remaining in stomach just after administering phenol red
ED50 values (amount of the compound to be tested which suppresses 50% of gastric emptying, with respect to the control animals without administering the compound to be tested) of some of the compounds of the formula (I) are shown in Table 2. In this connection, comparative compound 1 and comparative compound 2 are (3E)-1-methyl-3-(2-oxopropyridene)-1,3-dihydro-2H-indol-2-one, and (3E)-3-(2-oxopropyridene)-1-prop-2-in-1-yl-1,3-dihydro-2H-indol-2-one described in Non Patent Document 4 above, and has the following chemical structures, respectively.

[1] = test system: delay of discharging time induced by loperamide in mice; experiment: Loperamide induced constipation model (glass bead discharging time); type: in vivo; conditions: Mus musculus, read-out: ED50 (amount which suppresses 50% of the delay of discharging time induced by loperamide)
Description: It has been known that loperamide as a μ opioid receptor agonist causes convulsive contraction in intestinal tracts. Thus, a delay in the intestinal transport ability due to loperamide is thought as a constipation IBS model.
Mice (Slc:ddY, five-week old, male) fasted from the previous evening of the experiment. On the day of the experiment, the mice were acclimatized to cages for measurement for 1 hour or more, and 0.3 mg/kg of loperamide was administered subcutaneously. After 30 minutes, a compound to be tested was administered orally, ether anesthesia was applied to the mice immediately thereafter, glass beads having diameter of 3 mm were inserted to 2 cm from anus. The mice were returned to the cages for measurement, and the time from waking to discharging of the glass beads was measured. Furthermore, the compound to be tested was dissolved into 10% DMSO, 10% cremophor, and 80% distillated water.
As a result, it has been recognized that there was a delay in the beads discharging time of the loperamide administration group (vehicle group) in comparison with the loperamide non-administration group (control group).
ED50 values (amount of the compound to be tested which suppresses 50% of the delay of discharging time induced by loperamide) of some of the compounds of the formula (I) are shown in Table 3. In this connection, comparative compound 1 is the same compound as comparative compound 1 in Test Example 4.

Cytochrome P450(2D6) = Cytochrome P450(2D6) (Homo sapiens, UniProt P10635); experiment: Cytochrome P450(2D6) enzyme inhibition test; type: in vitro ADME; conditions: CYP2D6, fluorescent substrate 1.5 μmol/L, 37° C., 20 minutes
Cytochrome P450(2D6), sequence (P10635 whole entry): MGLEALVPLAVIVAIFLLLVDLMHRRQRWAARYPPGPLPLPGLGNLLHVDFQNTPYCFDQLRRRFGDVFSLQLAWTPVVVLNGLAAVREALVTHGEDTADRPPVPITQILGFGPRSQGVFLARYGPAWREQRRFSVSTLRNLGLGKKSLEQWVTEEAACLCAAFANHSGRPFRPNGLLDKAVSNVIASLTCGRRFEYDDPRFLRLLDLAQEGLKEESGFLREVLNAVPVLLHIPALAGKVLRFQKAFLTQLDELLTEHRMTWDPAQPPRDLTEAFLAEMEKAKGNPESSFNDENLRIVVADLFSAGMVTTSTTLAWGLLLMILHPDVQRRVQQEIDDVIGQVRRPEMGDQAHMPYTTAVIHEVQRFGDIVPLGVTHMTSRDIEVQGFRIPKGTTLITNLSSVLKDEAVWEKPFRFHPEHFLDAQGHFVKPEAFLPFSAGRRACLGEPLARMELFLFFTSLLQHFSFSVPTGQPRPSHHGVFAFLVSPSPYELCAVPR
Description: The experiment was performed in accordance with the method of Crespi et al. (Analytical Biochemistry, 248, 188-190, 1997).
As a substrate, 3-[2-(N,N-diethyl-N-methylamino)ethyl]-7-methoxy-4-methyl coumarine (1.5 μmol/L) a compound to be tested (3.1×10^−7 to 2×10^−5 M) and an enzyme (2.5×10^−8 M) were incubated at 37° C. for 20 minutes in total of […] of 100 mM phosphorous buffer (pH=7.4) including 8.2 mM NADP+, 0.41 mM glucose-6-phosphate, 0.41 mM MgCl2 and 0.4 Units/mL glucose-6-phosphate dehydrogenase, using 96 well plates. Then, 0.5 M aqueous 2-amino-2-hydroxymethyl-1,3-propandiol solution containing 80% acetonitrile was added to stop the reaction, fluorescence intensity (excitation wavelength; 390 nm, fluorescent wavelength; 460 nm) was measured with a fluorescent plate reader. An inhibition ratio was calculated with the following formula, and the test compound concentration when the inhibition ratio is 50% (IC50) was obtained.
C1: fluorescence intensity in the presence of the test compound and enzyme at know concentrations, and the substrate
C0: fluorescence intensity in the presence of the enzyme and substrate, without the test compound
B1: fluorescence intensity of blank well

[2] = male wistar rats, oral administration, versus control animals
[3] = mice (Slc:ddY, male), 0.3 mg/kg loperamide subcutaneously, compound orally

Compound	5-HT release promotion activation value (RIN14B cells)	EC50 (human TRPA1)	ED50 (gastric emptying of rats; [2])	ED50 [1, 3]	IC50 (Cytochrome P450(2D6))	melting point	ED50 (gastric emptying of rats; po)	ED50 [1]
COC(=O)c1cccc(CN2C(=O)/C(=C/C(N)=O)c3ccccc32)c1 [Example 4, methyl 3-{[(3E)-3-(2-amino-2-oxoethylidene)-2-oxo-2,3-dihydro-1H-indol-1-yl]methyl}benzoate]	144.6%	1.2 µM	–	–	–	–	–	–
CC(C)CN1C(=O)/C(=C/C(=O)O)c2ccccc21 [Example 13]	–	–	0.98 mg/kg	0.4 mg/kg	–	–	–	–
O=C(O)/C=C1/C(=O)N(CC2CCCCC2)c2ccccc21 [Example 15, (2E)-[1-(cyclohexylmethyl)-2-oxo-1,2-dihydro-3H-indol-3-ylidene]acetic acid]	97.4%	4.4 µM	–	–	> 20 µM	137 to 139 °C	–	–
O=C(O)/C=C1/C(=O)N(Cc2ccccc2)c2ccc(F)cc21 [Example 17, (2E)-(1-benzyl-5-fluoro-2-oxo-1,2-dihydro-3H-indol-3-ylidene)acetic acid]	–	4.45 µM	0.31 mg/kg	–	> 20 µM	177 to 179 °C	–	–
O=C(O)/C=C1/C(=O)N(CC2CCC2)c2ccccc21 [Example 24]	–	–	–	–	–	–	0.53 mg/kg	0.27 mg/kg
CC(C)CN1C(=O)/C(=C/C(=O)O)c2cc(F)ccc21 [Example 27]	40.0%	4.63 µM	–	–	–	–	–	–
CC(C)CN1C(=O)/C(=C/C(=O)O)c2cccc(Cl)c21 [Example 31, (2E)-(7-chloro-1-isobutyl-2-oxo-1,2-dihydro-3H-indol-3-ylidene)acetic acid]	–	0.61 µM	–	0.24 mg/kg	–	142 to 144 °C	–	–
O=C(O)/C=C1/C(=O)N(CC2CCC2)c2c(F)cccc21 [Example 32, (2E)-[1-(cyclobutylmethyl)-7-fluoro-2-oxo-1,2-dihydro-3H-indol-3-ylidene]acetic acid]	–	1.16 µM	0.21 mg/kg	–	> 50 µM	166 to 168 °C	–	–
CCC(CC)CN1C(=O)/C(=C/C(=O)N2CCOCC2)c2cccc(F)c21 [Example 45, (3E)-1-(2-ethylbutyl)-7-fluoro-3-(2-morpholin-4-yl-2-oxoethylidene)-1,3-dihydro-2H-indol-2-one]	–	1.29 µM	–	–	18 µM	102 to 104 °C	0.57 mg/kg	–
CC(=O)/C=C1/C(=O)N(C)c2ccccc21 [comparative compound 1, (3E)-1-methyl-3-(2-oxopropyridene)-1,3-dihydro-2H-indol-2-one, reference compound]	–	–	2.8 mg/kg	2.5 mg/kg	–	–	–	–
